Results on 2 compounds are retold here after paper PMC12234328, “A naphthalimide derivative exerts potent antiplatelet and antithrombotic activities without a bleeding tendency” (Frontiers in Pharmacology, 2025).

Like-named read-outs stand apart in the source and are kept apart here.

Series [1] has as its system thrombus formation in mesenteric venules. Put plainly: Fluorescein sodium-mediated thrombus formation in mesenteric microvessels of mice. The class given is in vivo. Conditions: 20 mg/kg i.v., positive control, n = 6, mean ± SEM. The procedure: Male ICR mice (weighing 20–25 g and aged 5–6 weeks) were purchased from BioLasco (Taipei, Taiwan). The animal use protocol for this project was approved by the Affidavit of Approval of Animal Use Protocol–Taipei Medical University (LAC-2020–0074). All animal experiments were conducted in accordance with the Guide for the Care and Use of Laboratory Animals, Eighth Edition (2011).
The mice were anesthetized with an oxygen–air mixture containing 3% isoflurane at a gas flow rate of 1.5–2 L/min. A bolus dose (bolus volume: 20 μL) of compound 6 (0.3 mg/kg, 0.6 mg/kg, or 1.2 mg/kg), DMSO (solvent control; 1.1 g/kg), or aspirin (20 mg/kg; positive control) was intravenously administered through the tail vein before the administering sodium fluorescein (15 mg/kg). The small intestinal segments were placed on a transparent culture dish, and the mesenteric vessels were observed under a microscope. Venules (20–30 μm) were selected and irradiated with light (wavelength <520 nm) to induce endothelial damage, causing thrombus formation and subsequent vessel occlusion. The time required to occlude a microvessel was recorded ([Lin et al., 2013]). A formula for dose translation based on the […] was used to calculate the appropriate dose for use in the mice ([Reagan-Shaw et al., 2008]). [Reagan-Shaw et al. (2008)] reported that the animal dose should not be extrapolated to a human equivalent dose (HED) by a simple conversion based on body weight. […] The formula for dose translation based on BSA is as follows: HED (mg/kg) = Animal dose (mg/kg) multiply by Animal Km/Human Km. Mouse Km is 3 and Human Km is 37.
FIGURE 3 Effects of compound 6 on thrombosis and hemostasis in mice. Mice were treated with compound 6 (0.3, 0.6, or 1.2 mg/kg), DMSO (solvent control), or aspirin (20 mg/kg; positive control) via intravenous route for 10 min. (A) The microthrombus formation (arrows) in mesenteric venules. Scale bar = 30 μm. […] Each point on the plot indicates a mouse (n = 6). Data (A,B) are presented as means ± SEM (n = 6). *p < 0.05 and ***p < 0.001 compared with the DMSO group.

Series [2] relates to tail bleeding (hemostasis). More on the design: method as in Shih et al., 2021. Particulars: ref Shih et al., 2021; cited from earlier work.
Series [3] concerns human platelet suspensions stimulated with collagen. More on the design: method as in Shih et al., 2021. Particulars: human platelets; ref Shih et al., 2021; read-out: IC50, collagen-induced platelet aggregation; cited from earlier work.
Series [4] concerns human platelet suspensions stimulated with U46619. Also noted: method as in Shih et al., 2021. Conditions: high concentrations; ref Shih et al., 2021; cited from earlier work.
The test system of series [5] is human platelet suspensions stimulated with thrombin. More on the design: method as in Shih et al., 2021. Conditions: high concentrations; ref Shih et al., 2021; cited from earlier work.
The subject of series [6] is thrombus formation in mesenteric venules. Also noted: method as in Shih et al., 2021. Particulars: mice, ref Shih et al., 2021, cited from earlier work.
Series [7] has as its target T1, recombinant human GPVI (Homo sapiens, UniProt Q9HCN6).
T1 sequence (Q9HCN6 21-267 limits assumed): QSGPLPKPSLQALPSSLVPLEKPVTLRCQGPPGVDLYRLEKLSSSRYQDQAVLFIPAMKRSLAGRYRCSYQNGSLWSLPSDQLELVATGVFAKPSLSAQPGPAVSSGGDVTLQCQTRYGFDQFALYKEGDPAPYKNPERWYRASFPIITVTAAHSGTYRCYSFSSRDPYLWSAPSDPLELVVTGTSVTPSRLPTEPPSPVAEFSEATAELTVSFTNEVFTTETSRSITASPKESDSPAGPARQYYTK
Nature of the series: Surface plasmon resonance binding assay (OpenSPR). Conditions: his-tagged recombinant GPVI on NTA chip, compound at 0.1 and 1 μM; read-out: KD (equilibrium dissociation constant). How it is done: Surface plasmon resonance (SPR) analysis was performed using an OpenSPR instrument (Nicoya, Kitchener, Canada). A nitrilotriacetic acid (NTA) sensor chip was installed in the OpenSPR instrument. Running buffer (phosphate-buffered saline) was pumped at the maximum flow rate, and 80% isopropanol was injected to remove any bubbles. Subsequently, 200 μL of a 200 mM imidazole solution was injected to prime the sensor surface. After rinsing the chip with running buffer, 200 μL of a 40 mM NiCl2 solution was used to activate the NTA chip. After 5 min of interaction time, his-tagged recombinant GPVI proteins were bound to the NTA chip by perfusing the GPVI protein solution at a flow rate of 20 μL/min. Solutions of compound 5 or compound 6 (0.1 and 1 μM) were then injected. The equilibrium dissociation constant (KD) was determined using the OpenSPR system (Nicoya).
An SPR binding assay was performed. First, recombinant human GPVI was coated on the NTA sensor chip. Solutions of compound 5 and compound 6 (0.1 and 1 μM) were then perfused on the chip, and the KD was determined using the OpenSPR system (Nicoya Lifesciences).
FIGURE 7 Direct binding of compound 6 on GPVI. […] Equilibrium dissociation constant (KD) were determined using the OpenSPR system. […]

`CC(=O)Oc1ccccc1C(=O)O` [aspirin, reference compound] returned an Occlusion time in series [1] of 492.2 ± 31.9 s.
In the case of `CN(C)CCN1C(=O)c2cccc3c(NCCNC(=O)c4ccccn4)ccc(c23)C1=O` [compound 5], in series [2], the Bleeding tendency result is listed as “demonstrated a bleeding tendency”. Also, the IC50 in series [3] is 6.5 µM. Besides, in series [4], the “Effect on U46619-induced platelet aggregation” value is recorded as “can block”. The “Effect on thrombin-induced platelet aggregation” value in series [5] is on record as “can block”. The Thrombus formation result in series [6] (1.2 mg/kg) is reported as “not”; in series [6] (2.3 mg/kg), “inhibits thrombus formation”. Besides, the Kd in series [7] was 0.3 µM.
